Patent US20040077881A1, “$G(d)1-pyrrolines used in pest control” (priority 2001, published 2004)

How the values were obtained:
[1] = logP determination by HPLC (EEC directive 79/831 Annex V.A8, reversed-phase C 18); type: physicochemical; conditions: reversed-phase HPLC column (C 18), pH 2.3, HPLC, reversed-phase column (C 18), 43° C., pH 2.3, 0.1% aqueous phosphoric acid/acetonitrile; read-out: log P
Procedure: The stated logP values were determined in accordance with EEC directive 79/831 Annex V.A8 by HPLC (High Performance Liquid Chromatography) using a reversed-phase column (C 18). Temperature: 43° C. In the acidic range, the determination was carried out at pH 2.3 using the mobile phases 0.1% aqueous phosphoric acid and acetonitrile; linear gradient from 10% acetonitrile to 90% acetonitrile.

[2] = system: Heliothis virescens caterpillars; test: Heliothis virescens test; type: in vivo; conditions: 1000 ppm, soyabean shoots dipped
Procedure: Solvent: 30 parts by weight of dimethylformamide Emulsifier: 1 part by weight of alkylaryl polyglycol ether To produce a suitable preparation of active compound, 1 part by weight of active compound is mixed with the stated amounts of solvent and emulsifier, and the concentrate is diluted with emulsifier-containing water to the desired concentration. Soyabean shoots (Glycine max) are treated by being dipped into the preparation of active compound of the desired concentration and populated with Heliothis virescens caterpillars whilst the leaves are still moist. After the desired period of time, the kill in % is determined. 100% means that all caterpillars have been killed; 0% means that none of the caterpillars have been killed.

[3] = system: fruit tree spider mite (Panonychus ulmi); test: Panonychus test; type: in vivo; conditions: 200 ppm, plum trees sprayed
Procedure: To produce a suitable preparation of active compound, 1 part by weight of active compound is mixed with the stated amounts of solvent and emulsifier, and the concentrate is diluted with emulsifier-containing water to the desired concentration.
Plum trees (Prunus domestica) of a height of about 30 cm which are heavily infested by all stages of the fruit tree spider mite (Panonychus ulmi) are sprayed with a preparation of active compound of the desired concentration.
After the desired period of time, the effect in % is determined. 100% means that all spider mites have been killed; 0% means that none of the spider mites have been killed.

[4] = system: caterpillars of the diamond-back moth (Plutella xylostella); test: Plutella test; type: in vivo; conditions: 1000 ppm, cabbage leaves dipped
Procedure: (§1) [table] To produce a suitable preparation of active compound, 1 part by weight of active compound is mixed with the stated amounts of solvent and emulsifier, and the concentrate is diluted with emulsifier-containing water to the desired concentration. Cabbage leaves (Brassica oleracea) are treated by being dipped into the preparation of active compound of the desired concentration and are populated with caterpillars of the diamond-back moth (Plutella xylostella) whilst the leaves are still moist. After the desired period of time, the kill in % is determined. 100% means that all caterpillars have been killed; 0% means that none of the caterpillars have been killed.

[5] = system: caterpillars of the army-worm (Spodoptera exigua); test: Spodoptera exigua test; type: in vivo; conditions: 1000 ppm, cabbage leaves dipped
Procedure: as §1, with “army-worm (Spodoptera exigua)” for “diamond-back moth (Plutella xylostella)”

[6] = system: caterpillars of the army-worm (Spodoptera frugiperda); test: Spodoptera frugiperda test; type: in vivo; conditions: 1000 ppm, cabbage leaves dipped
Procedure: as §1, with “army-worm (Spodoptera frugiperda)” for “diamond-back moth (Plutella xylostella)”

[7] = system: greenhouse red spider mite (Tetranychus urticae); test: Tetranychus test (OP-resistant/dip treatment); type: in vivo; conditions: 100 ppm, bean plants dipped, OP-resistant
Procedure: [table] To produce a suitable preparation of active compound, 1 part by weight of active compound is mixed with the stated amounts of solvent and emulsifier, and the concentrate is diluted with emulsifier-containing water to the desired concentration. Bean plants (Phaseolus vulgaris) which are heavily infested by all stages of the greenhouse red spider mite (Tetranychus urticae) are dipped into a preparation of active compound of the desired concentration. After the desired period of time, the effect in % is determined. 100% means that all spider mites have been killed; 0% means that none of the spider mites have been killed.

[8] = system: Lucilia cuprina larvae; test: Blowfly larvae test / development-inhibitory action; type: in vivo; conditions: 100 ppm
Procedure: [table] 20 mg of active compound are dissolved in 1 ml of dimethyl sulphoxide, more dilute concentrations are prepared by dilution with dist. H2O. About 20 Lucilia cuprina larvae are introduced into a test tube which contains about 1 cm^3 of horsemeat and 0.5 ml of the preparation of active compound to be tested. The activity of the preparation of active compound is determined after 24 and 48 hours. The test tubes are transferred into a beaker whose bottom is covered with sand. After a further 2 days, the test tubes are removed and the pupae are counted. The activity of the preparation of active compound is assessed using the number of flies that have hatched after 1.5 times the development period of an untreated control. 100% means that none of the flies have hatched; 0% means that all of the flies have hatched normally.

[9] = system: Amblyomma variegatum or A. hebraeum, nymphs which have sucked themselves full; test: Nymph ecdysis test on polyphagous ticks; type: in vivo; conditions: 100 ppm; nymphs immersed for 1 minute; assessed after 4 to 6 weeks
Procedure: [table] 20 mg of active compound are dissolved in 1 ml of dimethyl sulphoxide, more dilute concentrations are prepared by dilution with dist. H2O. 10 nymphs which have sucked themselves full are immersed for 1 minute into the preparation of active compound to be tested. The animals are transferred to petri dishes (Ø0 9.5 cm) fitted with filter discs and covered. After the nymphs have remained in a controlled-environment cabinet for 4 to 6 weeks, the effect on ecdysis is determined. 100% means that none of the animals have undergone normal ecdysis. 0% means that all animals have undergone ecdysis.

## Fc1cccc(F)c1C1=NC(c2ccc(-c3ccc(OC(F)(F)F)cc3)cc2)CC1(Cl)Cl (stereo not drawn) [Example 4, 4,4-dichloro-5-(2,6-difluorophenyl)-2-[4′-(trifluoromethoxy)-1,1′-biphenyl-4-yl]-3,4-dihydro-2H-pyrrole]
[1]
  chromatographic logP: 5.92
other
  melting point: 60 to 61 °C

## Fc1cccc(F)c1C1=NC(c2ccc(-c3ccc(OC(F)(F)F)cc3)cc2)CC1(Cl)Cl (stereo not drawn) [drawing 52]
[2]
  Kill rate in % after 6 d: 100%

## Fc1cccc(F)c1C1=NC(c2ccc(-c3ccc(OC(F)(F)F)cc3)cc2)CC1Cl (stereo not drawn) [drawing 53]
[2]
  Kill rate in % after 6 d: 100%

## Fc1cccc(F)c1C1=N[C@@H](c2ccc(-c3ccc(OC(F)(F)F)cc3)cc2)CC1(Cl)Cl [drawing 54]
[2]
  Kill rate in % after 6 d: 100%

## O=S(=O)(Oc1ccc(-c2ccc([C@H]3C[C@H](Cl)C(c4c(F)cccc4F)=N3)cc2)cc1)C(F)(F)F [drawing 55]
[3]
  Kill rate in % after 14 d: 100%

## Fc1cccc(F)c1C1=NC(c2ccc(-c3ccc(OC(F)(F)F)cc3)cc2)CC1Cl (stereo not drawn) [drawing 65]
[4]
  Kill rate in % after 6 d: 100%

## Fc1cccc(F)c1C1=NC(c2ccc(-c3ccc(OC(F)(F)F)cc3)cc2)CC1(Cl)Cl (stereo not drawn) [drawing 66]
[5]
  Kill rate in % after 6 d: 100%

## Fc1cccc(F)c1C1=NC(c2ccc(-c3ccc(OC(F)(F)F)cc3)cc2)CC1Cl (stereo not drawn) [drawing 67]
[5]
  Kill rate in % after 6 d: 100%

## Fc1cccc(F)c1C1=N[C@@H](c2ccc(-c3ccc(OC(F)(F)F)cc3)cc2)CC1(Cl)Cl [drawing 68]
[5]
  Kill rate in % after 6 d: 100%

## Fc1cccc(F)c1C1=NC(c2ccc(-c3ccc(OC(F)(F)F)cc3)cc2)CC1(Cl)Cl (stereo not drawn) [drawing 69]
[6]
  Kill rate in % after 7 d: 100%

## Fc1cccc(F)c1C1=NC(c2ccc(-c3ccc(OC(F)(F)F)cc3)cc2)CC1Cl (stereo not drawn) [drawing 70]
[6]
  Kill rate in % after 7 d: 100%

## Fc1cccc(F)c1C1=N[C@@H](c2ccc(-c3ccc(OC(F)(F)F)cc3)cc2)CC1(Cl)Cl [drawing 71]
[6]
  Kill rate in % after 7 d: 100%

## Fc1cccc(F)c1C1=N[C@@H](c2ccc(-c3ccc(OC(F)(F)F)cc3)cc2)CC1(Br)Br [drawing 72]
[6]
  Kill rate in % after 7 d: 100%

## Fc1cccc(F)c1C1=N[C@@H](c2ccc(-c3ccc(OC(F)(F)F)cc3)cc2)C/C1=C\c1ccc(Br)cc1 [drawing 73]
[6]
  Kill rate in % after 7 d: 100%

## O=S(=O)(Oc1ccc([C@H]2CC(Br)C(c3c(F)cccc3F)=N2)cc1)C(F)(F)F (stereo partly drawn) [drawing 74]
[6]
  Kill rate in % after 7 d: 100%

## O=S(=O)(Oc1ccc(-c2ccc([C@H]3C[C@H](Cl)C(c4c(F)cccc4F)=N3)cc2)cc1)C(F)(F)F [drawing 75]
[6]
  Kill rate in % after 7 d: 100%

## Fc1cccc(F)c1C1=N[C@@H](c2ccc(-c3ccc(OC(F)(F)F)cc3)cc2)C/C1=C\c1ccc(Br)cc1 [drawing 80]
[7]
  Kill rate in % after 7 d: 98%

## O=S(=O)(Oc1ccc([C@H]2CC(Br)C(c3c(F)cccc3F)=N2)cc1)C(F)(F)F (stereo partly drawn) [drawing 81]
[7]
  Kill rate in % after 7 d: 98%

## O=S(=O)(Oc1ccc([C@H]2CC(Cl)(Cl)C(c3c(F)cccc3F)=N2)cc1)C(F)(F)F [drawing 82]
[7]
  Kill rate in % after 7 d: 95%

## O=S(=O)(Oc1ccc(-c2ccc([C@H]3C[C@H](Cl)C(c4c(F)cccc4F)=N3)cc2)cc1)C(F)(F)F [drawing 83]
[7]
  Kill rate in % after 7 d: 98%

## Fc1cccc(F)c1C1=NC(c2ccc(-c3ccc(OC(F)(F)F)cc3)cc2)CC1(Cl)Cl (stereo not drawn) [drawing 84]
[8]
  Kill rate in % after 48 h: 100%

## Fc1cccc(F)c1C1=N[C@@H](c2ccc(-c3ccc(OC(F)(F)F)cc3)cc2)CC1(Cl)Cl [drawing 85]
[8]
  Kill rate in % after 48 h: 100%

## O=S(=O)(Oc1ccc(-c2ccc([C@H]3C[C@H](Cl)C(c4c(F)cccc4F)=N3)cc2)cc1)C(F)(F)F [drawing 86]
[8]
  Kill rate in % after 48 h: 100%

## Fc1cccc(F)c1C1=NC(c2ccc(-c3ccc(OC(F)(F)F)cc3)cc2)CC1(Cl)Cl (stereo not drawn) [drawing 87]
[9]
  Effect on ecdysis in %: 100%

## Fc1cccc(F)c1C1=N[C@@H](c2ccc(-c3ccc(OC(F)(F)F)cc3)cc2)CC1(Cl)Cl [drawing 88]
[9]
  Effect on ecdysis in %: 100%

## O=S(=O)(Oc1ccc(-c2ccc([C@H]3C[C@H](Cl)C(c4c(F)cccc4F)=N3)cc2)cc1)C(F)(F)F [drawing 89]
[9]
  Effect on ecdysis in %: 100%
